Data on 1 molecule can be found in patent US9511045B2 (UNIVERSITE D'AUVERGNE CLERMONT I, priority 2010, dated 2016).

For the data set, the system named is Male Sprague-Dawley rats. To be noted: 72 hours after IP injection of oxaliplatin. The procedure:
Male Sprague-Dawley rats (Charles River Lab, France), weighing 175 to 200 grams, were placed in a cage with food and water ad libitum, in a temperature-controlled environment at 22° C. with a 12 h/12 h day/night cycle. The experiments were conducted under blind conditions in a calm room by the same experimenter, while taking care to comply with the regulations on animal experimentation.
This low-temperature immersion test made it possible to measure the hypersensitivity to cold in the animals. The bottom third of the rat's tail was immersed in a temperature-controlled bath 10° C. until it was removed or until the “cut-off” set at 30 seconds (Necker and Hellon. 1978 Pain. 4: 231-242).
The experimental data was analyzed using the software program Sigma STAT, version 3.0 for Windows (STAT32 Software Inc., San Diego, Calif.). The kinetics of the reaction times to the temperature-based stimulation were analyzed using a two-factor variance analysis followed by a multiple comparison test to study the change over time. […] The significance threshold was P<0.05.

The structures appear in SMILES notation.

`O=C(O)C(=O)O.[NH-][C@@H]1CCCC[C@H]1[NH-].[Pt+2]` [oxaliplatin]: the “effect on cold sensitivity threshold (10° C.)” value (FIG. 1) is recorded as “reduced the cold sensitivity threshold”. In addition, the “time after which the rat removed its tail” value (tail immersed in water at 10° C., untreated rat around 12 seconds, cut-off 30 seconds) is 7 s.
